Measured values published in patent US11897898B2, “Pyridine macrocycle compounds as ASK1 inhibiting agents” (BIOGEN MA INC., priority 2018, dated 2024).

Key:
ASK1/MAP3K5 = molecular target: T1, ASK1/MAP3K5 (Homo sapiens, UniProt Q99683); experiment: ASK1 enzyme assay (ASK1/MAP3K5 assay by Reaction Biology Corp., 33P-ATP filter-binding); format: biochemical; settings: 20 μM myelin basic protein and 10 μM ATP; class symbols
T1 construct: purchased Reaction Biology Corp. (Malvern, Pa.)
T1 sequence (Q99683 1-1374): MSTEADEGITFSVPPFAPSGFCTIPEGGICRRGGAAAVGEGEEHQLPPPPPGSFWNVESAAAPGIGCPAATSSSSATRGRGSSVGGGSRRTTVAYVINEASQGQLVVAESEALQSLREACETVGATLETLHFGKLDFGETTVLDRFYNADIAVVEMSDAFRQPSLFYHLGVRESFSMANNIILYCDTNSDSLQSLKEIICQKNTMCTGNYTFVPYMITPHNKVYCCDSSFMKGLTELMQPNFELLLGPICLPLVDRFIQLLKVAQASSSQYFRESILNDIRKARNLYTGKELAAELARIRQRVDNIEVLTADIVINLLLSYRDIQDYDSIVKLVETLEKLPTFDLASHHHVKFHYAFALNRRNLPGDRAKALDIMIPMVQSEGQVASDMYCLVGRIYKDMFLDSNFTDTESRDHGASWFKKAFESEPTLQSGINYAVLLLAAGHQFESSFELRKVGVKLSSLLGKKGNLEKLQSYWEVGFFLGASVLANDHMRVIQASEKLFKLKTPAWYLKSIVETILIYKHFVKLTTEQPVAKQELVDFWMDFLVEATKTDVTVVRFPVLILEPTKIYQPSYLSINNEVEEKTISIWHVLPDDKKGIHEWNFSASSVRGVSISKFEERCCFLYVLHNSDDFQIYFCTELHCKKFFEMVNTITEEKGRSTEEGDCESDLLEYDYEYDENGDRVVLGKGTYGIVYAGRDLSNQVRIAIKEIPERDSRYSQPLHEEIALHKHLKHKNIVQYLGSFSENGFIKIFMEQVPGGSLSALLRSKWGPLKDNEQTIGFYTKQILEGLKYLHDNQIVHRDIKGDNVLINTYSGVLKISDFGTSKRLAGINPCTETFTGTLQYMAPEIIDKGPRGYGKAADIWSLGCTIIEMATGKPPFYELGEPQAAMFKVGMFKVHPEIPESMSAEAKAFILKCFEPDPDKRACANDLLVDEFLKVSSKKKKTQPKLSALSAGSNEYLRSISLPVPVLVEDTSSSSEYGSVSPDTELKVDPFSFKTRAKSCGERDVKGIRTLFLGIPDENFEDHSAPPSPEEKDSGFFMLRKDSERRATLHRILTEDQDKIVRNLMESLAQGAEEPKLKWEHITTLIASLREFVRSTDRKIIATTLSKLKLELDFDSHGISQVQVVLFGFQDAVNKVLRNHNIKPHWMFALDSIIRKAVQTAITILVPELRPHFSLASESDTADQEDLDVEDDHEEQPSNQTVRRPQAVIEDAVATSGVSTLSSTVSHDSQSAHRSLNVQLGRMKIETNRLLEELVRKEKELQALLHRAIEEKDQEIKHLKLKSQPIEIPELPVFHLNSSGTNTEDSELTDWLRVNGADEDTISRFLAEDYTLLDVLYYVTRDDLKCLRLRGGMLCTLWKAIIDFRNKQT
Procedure: The protein kinase inhibitory activity of the compounds described herein were tested using the ASK1/MAP3K5 assay by Reaction Biology Corp. (Malvern, Pa.). The assay procedure follows (and is also available on the Reaction Biology Corp. website). • Base Reaction Buffer: 20 mM Hepes (pH 7.5), 10 mM MgCl2, 1 mM EGTA, • 0.02% Brij35, 0.02 mg/mL BSA, 0.1 mM Na3VO4, 2 mM DTT, 1% DMSO; • Substrate: 20 μM of myelin basic protein (MBP) and 10 μM ATP; • Protein kinase: ASK1/MAP3K5. • Reaction Procedure: • 1. Prepare indicated substrate in freshly prepared Base Reaction Buffer. • 2. Deliver any required cofactors to the substrate solution. • 3. Deliver indicated kinase into the substrate solution and gently mix. • 4. Deliver compounds in DMSO into the kinase reaction mixture by Acoustic; technology (Echo550; nanoliter range), incubate for 20 minutes at room temperature. • 5. Deliver ^33P-ATP (specific activity 10 μCi/μL) into the reaction mixture to initiate the reaction. • 6. Incubate kinase reaction for 2 hours at room temperature. • 7. Reactions are spotted onto P81 ion exchange paper. • 8. Detect kinase activity by filter-binding method.

[1] = molecular target: T2, ASK1 T838 auto phosphorylation (Homo sapiens, UniProt Q99683); experiment: ASK1 (AUTO PHOS T838) assay in HEK-293T cells, MSD format; format: cell-based; settings: HEK-293T cells transfected with ASK1-V5, 1 hr compound incubation
T2 construct: ASK1-V5 tagged full length plasmid; expressed in transfected cells; host or cells: HEK-293T
T2 sequence (Q99683 1-1374): T1 sequence (Q99683 1-1374)
Procedure: ASK1 T838 auto phosphorylation was measured in HEK-293T cells using MSD assay format. HEK 293T cells were seeded in 15 cm plates at a density of 18 million cells and 20 mL DMEM with 10% FBS, Pen/Strep media. The plates were incubated at 37° C. overnight. Media on plates was changed to OPTI-MEM, serum free media and cells were transfected with 9 μg of ASK1-V5 tagged full length plasmid using Lipofectamine 2000 (Invitrogen) and the plates were incubated at 37° C. overnight. Cells were trypsinized, counted on Nexcellometer and plated into 96 well tissue culture plates with 100,000 cells/well and 200 μL media. Cells were incubated for 4 hr at 37° C. then ASK1 compounds were added using a HP 300e. Compounds were tested at 20 μM with 3 fold, 10 point dilution points then incubated for 1 hr at 37° C. A lysis buffer (Cell Signaling) was prepared with protease and phosphatase inhibitor and maintained at 4° C. until use. Media from cells was discarded and 120 μL of cold lysis buffer was added to the cells, the plate was shaken 4° C. for 1 hr. Lysate was mixed using Apricot liquid handler; aspirating up and down 16 times at high speed using 50 μL volume. 50 μL of cell lysates were transferred to a pre-coated MSD plates containing mouse anti-V5 antibody (1:500 dilution) and washed 3× with MSD wash buffer (TBST) and blocked with a 3% BSA solution. Plates were then incubated on a plate shaker overnight at 4° C. Plates were washed 3× with MSD wash buffer and 50 μL of rabbit anti-pASK1 T838 antibody was added to the wells and incubated for 2 hr at room temperature on a plate shaker. Plates were then washed and 50 μL of goat anti-rabbit sulfa-tag (1:500 dilution) was added to wells, and incubated for 1 hr at room temperature on a plate shaker. Plates were washed 3× and 150 μL of 2×MSD Read buffer was added to wells. Plates were immediately read on a MSD Instrument Reader where chemoluminecense signal was measured. Data was analyzed using Graph Pad or Genedata, the data was normalized and plotted, % activity versus log of compound concentration. The IC50 values were obtained from a 4 parameter fit.

Compound: C[C@@H]1CN(c2cnc3c(c2)C(=O)Nc2cccc(n2)-c2nncn2[C@@H](C)CCCO3)C[C@H](C)N1 [Compound 11, (S)-5^5-((3S,5R)-3,5-Dimethylpiperazin-1-yl)-10-methyl-1^4H-6-oxa-3-aza-2(2,6),5(3,2)-dipyridina-1(3,4)-triazolacyclodecaphan-4-one]
- IC50 (ASK1/MAP3K5): ≤ 100 nM
- IC50 ([1]; class symbols): ≤ 100 nM

Compound: C[C@@H]1CCCOc2ncc(Br)cc2C(=O)Nc2cccc(n2)-c2nncn21 (single isomer, unassigned) [Compound 2]
- IC50 (ASK1/MAP3K5): 1000 to 10000 nM
- IC50 [1]: ≥ 10000 nM

Compound: C[C@H]1CCCOc2ncc(-c3cncnc3)cc2C(=O)Nc2cccc(n2)-c2nncn21 [Compound 21, (S)-10-Methyl-5^5-(pyrimidin-5-yl)-1^4H-6-oxa-3-aza-2(2,6),5(3,2)-dipyridina-1(3,4)-triazolacyclodecaphan-4-one]
- IC50 (ASK1/MAP3K5): ≤ 100 nM

Compound: C[C@H]1CCCOc2ncc(S(C)(=O)=O)cc2C(=O)Nc2cccc(n2)-c2nncn21 [Compound 43, (S)-10-Methyl-5^5-(methylsulfonyl)-1^4H-6-oxa-3-aza-2(2,6),5(3,2)-dipyridina-1(3,4)-triazolacyclodecaphan-4-one]
- IC50 ([1]; class symbols): 100 to 1000 nM

Compound: C[C@H]1CCCOc2ncc(-c3cnn(CCN(C)C)c3)cc2C(=O)Nc2cccc(n2)-c2nncn21 [Compound 25, (S)-5^5-(1-(2-(Dimethylamino)ethyl)-1H-pyrazol-4-yl)-10-methyl-1^4H-6-oxa-3-aza-2(2,6),5(3,2)-dipyridina-1(3,4)-triazolacyclodecaphan-4-one]
- IC50 (ASK1/MAP3K5): ≤ 100 nM
- IC50 ([1]; class symbols): ≤ 100 nM

Compound: COC(C)(C)c1cnc2c(c1)C(=O)Nc1cccc(n1)-c1nncn1[C@@H](C)CCCO2 [Compound 40, (S)-5^5-(2-Methoxypropan-2-yl)-10-methyl-1^4H-6-oxa-3-aza-2(2,6),5(3,2)-dipyridina-1(3,4)-triazolacyclodecaphan-4-one]
- IC50 (ASK1/MAP3K5): ≤ 100 nM
- IC50 ([1]; class symbols): 100 to 1000 nM

Compound: C[C@H]1CCCOc2ncc(-c3cnn(C)c3)cc2C(=O)Nc2cccc(n2)-c2nncn21 [Compound 26, (S)-10-Methyl-5^5-(1-methyl-1H-pyrazol-4-yl)-1^4H-6-oxa-3-aza-2(2,6),5(3,2)-dipyridina-1(3,4)-triazolacyclodecaphan-4-one]
- IC50 ([1]; class symbols): ≤ 100 nM

Compound: C#Cc1cnc2c(c1)C(=O)Nc1cccc(n1)-c1nncn1[C@@H](C)CCCO2 [Compound 34, (S)-5^5-Ethynyl-10-methyl-1^4H-6-oxa-3-aza-2(2,6),5(3,2)-dipyridina-1(3,4)-triazolacyclodecaphan-4-one]
- IC50 ([1]; class symbols): 100 to 1000 nM

Compound: C[C@H]1CCCOc2ncc(-c3cnccn3)cc2C(=O)Nc2cccc(n2)-c2nncn21 [Compound 22, (S)-10-Methyl-5^5-(pyrazin-2-yl)-1^4H-6-oxa-3-aza-2(2,6),5(3,2)-dipyridina-1(3,4)-triazolacyclodecaphan-4-one]
- IC50 (ASK1/MAP3K5): ≤ 100 nM
- IC50 ([1]; class symbols): ≤ 100 nM

Compound: C[C@@H]1CCCOc2ncc(N3CCOCC3)cc2C(=O)Nc2cccc(n2)-c2nncn21 [Compound 6, (R)-10-Methyl-5^5-morpholino-1^4H-6-oxa-3-aza-2(2,6),5(3,2)-dipyridina-1(3,4)-triazolacyclodecaphan-4-one]
- IC50 ([1]; class symbols): 1000 to 10000 nM

Compound: Cc1cnn(-c2cnc3c(c2)C(=O)Nc2cccc(n2)-c2nncn2[C@@H](C)CCCO3)c1 [Compound 27, (S)-10-Methyl-5^5-(4-methyl-1H-pyrazol-1-yl)-1^4H-6-oxa-3-aza-2(2,6),5(3,2)-dipyridina-1(3,4)-triazolacyclodecaphan-4-one]
- IC50 ([1]; class symbols): 100 to 1000 nM

Compound: CC1CCCOc2ncccc2C(=O)Nc2cccc(n2)-c2nncn21 (stereo not shown) [Compound 3, 10-Methyl-1^4H-6-oxa-3-aza-2(2,6),5(3,2)-dipyridina-1(3,4)-triazolacyclodecaphan-4-one]
- IC50 (ASK1/MAP3K5): ≤ 100 nM
- IC50 ([1]; class symbols): 100 to 1000 nM

Compound: C[C@H]1CCCOc2ncc(OCCN(C)C)cc2C(=O)Nc2cccc(n2)-c2nncn21 [Compound 44, (S)-5^5-(2-(Dimethylamino)ethoxy)-10-methyl-1^4H-6-oxa-3-aza-2(2,6),5(3,2)-dipyridina-1(3,4)-triazolacyclodecaphan-4-one]
- IC50 (ASK1/MAP3K5): ≤ 100 nM
- IC50 ([1]; class symbols): ≤ 100 nM

Compound: C[C@@H]1CCCOc2ncc(-c3ccncc3)cc2C(=O)Nc2cccc(n2)-c2nncn21 [Compound 18, (R)-10-Methyl-5^5-(pyridin-4-yl)-1^4H-6-oxa-3-aza-2(2,6),5(3,2)-dipyridina-1(3,4)-triazolacyclodecaphan-4-one]
- IC50 ([1]; class symbols): 1000 to 10000 nM

Compound: C[C@H]1CCCOc2ncc(C3CCN(C)CC3)cc2C(=O)Nc2cccc(n2)-c2nncn21 [Compound 16, (S)-10-Methyl-5^5-(1-methylpiperidin-4-yl)-1^4H-6-oxa-3-aza-2(2,6),5(3,2)-dipyridina-1(3,4)-triazolacyclodecaphan-4-one]
- IC50 ([1]; class symbols): ≤ 100 nM

Compound: C[C@H]1CCCOc2ncc(-n3ccc(C(F)(F)F)n3)cc2C(=O)Nc2cccc(n2)-c2nncn21 [Compound 29, (S)-10-Methyl-5^5-(3-(trifluoromethyl)-1H-pyrazol-1-yl)-1^4H-6-oxa-3-aza-2(2,6),5(3,2)-dipyridina-1(3,4)-triazolacyclodecaphan-4-one]
- IC50 ([1]; class symbols): 100 to 1000 nM

Compound: C[C@H]1CCCOc2ncc(C#CC3CC3)cc2C(=O)Nc2cccc(n2)-c2nncn21 [Compound 35, (S)-5^5-(Cyclopropylethynyl)-10-methyl-1^4H-6-oxa-3-aza-2(2,6),5(3,2)-dipyridina-1(3,4)-triazolacyclodecaphan-4-one]
- IC50 ([1]; class symbols): 100 to 1000 nM

Compound: C[C@H]1CCCOc2ncc(C3CC3)cc2C(=O)Nc2cccc(n2)-c2nncn21 [Compound 36, (S)-5^5-Cyclopropyl-10-methyl-1^4H-6-oxa-3-aza-2(2,6),5(3,2)-dipyridina-1(3,4)-triazolacyclodecaphan-4-one]
- IC50 ([1]; class symbols): 100 to 1000 nM
